Test systems include SF-539; LOX IMVI; OVCAR-8; MCF7; OVCAR-5; OVCAR-3; ACHN; SF-295; MDA-N; HT-29; SR; UO-31; M14; SN12C; SK-MEL-2; PC-3; SK-MEL-5; CCRF-CEM; CAKI-1.
What all share (test): NCI tumour cell line growth inhibition, 48 h

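Where inhibition never reached the appropriate level, the endpoint shown equals the highest concentration tested. Otherwise, values were interpolated linearly from a five-concentration, 48-hour dose response in 96-well plates. Abbreviation: GI50, concentration required for 50% inhibition of growth.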 Calls of active or inactive are those of the source. No stated cut-off is given here; in the data, active = GI50 up to about 1.1 µM and inactive = higher.

Regarding `Nc1ccccc1C(=O)CCc1c[nH]c2ccccc12`, the GI50 is 30.3 µM (inactive) in the assay with SF-539; 47.5 µM (inactive) in the assay with LOX IMVI; > 100 µM (inactive) in the assay with OVCAR-8; > 100 µM (inactive) in the assay with MCF7; > 100 µM (inactive) with OVCAR-5; > 100 µM (inactive) in the assay on OVCAR-3. For the same molecule, the GI50 with ACHN is 53.7 µM (inactive); in the assay on SF-295 it was 19.4 µM (inactive); with MDA-N, > 100 µM (inactive); with HT-29 it was > 100 µM (inactive); with SR, > 100 µM (inactive); with UO-31 it was 5.4 µM (inactive). Moreover, the GI50 in the assay on M14, with SN12C, in the assay with SK-MEL-2 and in the assay on PC-3 was > 100 µM (inactive) throughout.
As to `COP(=O)(OC)OCN(C)CC/C=C(\C)CC/C=C(\C)CCC=C(C)C`, the GI50 in the assay with SK-MEL-5 was 11.8 µM (inactive); in the assay with SF-539, 15.7 µM (inactive); in the assay on CCRF-CEM, 10.4 µM (inactive); with LOX IMVI, 15.8 µM (inactive); in the assay on OVCAR-8, 16 µM (inactive); with MCF7 it was 15.2 µM (inactive). In addition, the GI50 was 15.5 µM (inactive) in the assay with OVCAR-5; 15.3 µM (inactive) with OVCAR-3; 22.8 µM (inactive) in the assay on ACHN; 16.6 µM (inactive) in the assay on SF-295; 14.9 µM (inactive) with MDA-N; 17.6 µM (inactive) in the assay on CAKI-1. The GI50 in the assay on UO-31 is 14.1 µM (inactive); with M14, 14.5 µM (inactive); with SN12C, 15.6 µM (inactive); in the assay on SK-MEL-2, 14.9 µM (inactive); in the assay with PC-3, 7.57 µM (inactive).
Regarding `O=C(CCCCCCCCC(=O)N1C(=O)CC(=O)N(c2ccccc2)C1=S)N1C(=O)CC(=O)N(c2ccccc2)C1=S`, the GI50 in the assay with SK-MEL-5, in the assay on CCRF-CEM, in the assay on LOX IMVI, in the assay with OVCAR-8, with MCF7 and in the assay with OVCAR-5 was > 100 µM (inactive) each time. The GI50 in the assay on OVCAR-3, in the assay on ACHN, with SF-295, with MDA-N, in the assay with CAKI-1 and with HT-29 was > 100 µM (inactive) throughout. Moreover, the GI50 in the assay on SR, in the assay with UO-31, in the assay on M14, in the assay on SN12C, in the assay with SK-MEL-2 and with PC-3 was > 100 µM (inactive) each time.
In the case of `O[C@@H]1C[C@@H]2N[C@@](O)(C[C@@H]2O)[C@H]1O`, the GI50 in the assay with SK-MEL-5, in the assay with SF-539, in the assay with CCRF-CEM, with LOX IMVI, with OVCAR-8 and in the assay on MCF7 was > 100 µM (inactive) throughout. Moreover, the GI50 in the assay with OVCAR-5, in the assay with OVCAR-3, in the assay with ACHN, in the assay on SF-295, with MDA-N and with HT-29 was > 100 µM (inactive) each time. For the same molecule, the GI50 in the assay with SR, in the assay with UO-31, with M14, with SN12C and with PC-3 was > 100 µM (inactive) throughout.
In the case of `COc1ccc(-c2cc(=O)c3c(O)cc(C)cc3o2)cc1OC`, the GI50 in the assay on SK-MEL-5, in the assay on SF-539, in the assay with CCRF-CEM, with LOX IMVI, in the assay with MCF7 and in the assay on OVCAR-5 was > 100 µM (inactive) throughout. Besides, the GI50 in the assay with OVCAR-3, in the assay with ACHN, in the assay on SF-295, in the assay with MDA-N, in the assay on HT-29 and with SR was > 100 µM (inactive) in each case. The GI50 with UO-31, with M14, in the assay on SN12C, in the assay on SK-MEL-2 and in the assay on PC-3 was > 100 µM (inactive) throughout.
`COc1ccccc1C1c2cc3c(cc2OC(N2CCOCC2)C1C)OCO3` (configuration not stated): the GI50 is 15.4 µM (inactive) in the assay on SK-MEL-5; 14.2 µM (inactive) in the assay on SF-539; 13.2 µM (inactive) in the assay on CCRF-CEM; 16.7 µM (inactive) with LOX IMVI; 28.3 µM (inactive) in the assay with OVCAR-8; 23.6 µM (inactive) in the assay on MCF7. Moreover, the GI50 was 16.4 µM (inactive) with OVCAR-5; 13 µM (inactive) in the assay with OVCAR-3; 26.2 µM (inactive) in the assay with ACHN; 13.5 µM (inactive) with SF-295; 10.5 µM (inactive) in the assay with MDA-N; 16.9 µM (inactive) in the assay on HT-29. Besides, the GI50 with SR was 15.8 µM (inactive); in the assay on UO-31, 15.9 µM (inactive); in the assay on M14, 17.5 µM (inactive); in the assay on SN12C it was 17.7 µM (inactive); in the assay with SK-MEL-2, 17.7 µM (inactive); in the assay on PC-3, 21.5 µM (inactive).
Take `CC1(C)C(=O)C2(C#N)CCC1C2` (configuration not stated): the GI50 in the assay with SK-MEL-5, in the assay with SF-539, in the assay on CCRF-CEM, in the assay on LOX IMVI, in the assay on OVCAR-8 and in the assay with MCF7 was > 100 µM (inactive) each time. For the same molecule, the GI50 in the assay on OVCAR-5, with OVCAR-3, with ACHN, with SF-295, in the assay on MDA-N and in the assay on CAKI-1 was > 100 µM (inactive) throughout. The GI50 in the assay on HT-29, in the assay with UO-31, in the assay with M14, in the assay with SN12C, in the assay with SK-MEL-2 and in the assay with PC-3 was > 100 µM (inactive) throughout.
In the case of `CN(C)CCNc1nc(-c2ccc3ccccc3c2)nc2[nH]cnc12`, the GI50 in the assay on SK-MEL-5 was 10.7 µM (inactive); in the assay on CCRF-CEM, 9.27 µM (inactive); in the assay on LOX IMVI, 4.55 µM (inactive); in the assay on OVCAR-8, 10.8 µM (inactive); in the assay on MCF7, 7.33 µM (inactive); with OVCAR-5, 13.1 µM (inactive). In addition, the GI50 in the assay with OVCAR-3 was 7.64 µM (inactive); with ACHN, 2.73 µM (inactive); in the assay on SF-295, 13.7 µM (inactive); in the assay with MDA-N it was 10.7 µM (inactive); in the assay on CAKI-1 it was 4.89 µM (inactive); with HT-29 it was 3.84 µM (inactive). Further, the GI50 in the assay on SR was 2.88 µM (inactive); in the assay on UO-31, 3.03 µM (inactive); in the assay on M14, 11.4 µM (inactive); in the assay with SN12C it was 11.1 µM (inactive); in the assay on SK-MEL-2, 14.6 µM (inactive); in the assay on PC-3, 4.76 µM (inactive).
As to `C=CCn1c(S)nnc1C12CC3CC(CC(C3)C1)C2`, the GI50 is > 100 µM (inactive) in the assay with SF-539; 20.1 µM (inactive) in the assay on CCRF-CEM; 86.5 µM (inactive) with LOX IMVI; 92.9 µM (inactive) with OVCAR-8; 42.9 µM (inactive) in the assay with MCF7; > 100 µM (inactive) in the assay with OVCAR-5. Also, the GI50 in the assay with OVCAR-3 is 59.4 µM (inactive); with ACHN, 54.3 µM (inactive); with SF-295, 41.3 µM (inactive); with MDA-N, 45.4 µM (inactive); in the assay on HT-29, 50.1 µM (inactive); in the assay with SR, 1.51 µM (inactive). The GI50 with UO-31 was 33 µM (inactive); with M14 it was 61 µM (inactive); in the assay on SN12C, > 100 µM (inactive); with SK-MEL-2, 67.8 µM (inactive); in the assay with PC-3, 32.7 µM (inactive).
As to `COc1cccc2c1C(=O)c1c(O)c3c(c(O)c1C2=O)CC(O)(C(O)CO)CC3OC1CC2C(OC3COCC(C#N)N32)C(C)O1` (configuration not stated), the GI50 in the assay on SK-MEL-5, in the assay on SF-539, in the assay with CCRF-CEM, with LOX IMVI, in the assay with OVCAR-8 and in the assay with MCF7 was < 0.01 µM (active) each time. For the same molecule, the GI50 in the assay with OVCAR-5, with OVCAR-3, in the assay with ACHN, in the assay on SF-295, in the assay on MDA-N and in the assay on HT-29 was < 0.01 µM (active) in each case. In addition, the GI50 in the assay with SR, with UO-31, in the assay with M14, in the assay with SN12C, in the assay with SK-MEL-2 and with PC-3 was < 0.01 µM (active) throughout.
Regarding `NCCO/C=C/C(N)C(=O)O` (configuration not stated) [AMINOETHOXYVINYLGLYCINE], the GI50 in the assay on SK-MEL-5, in the assay with SF-539, in the assay on CCRF-CEM, in the assay with LOX IMVI, with OVCAR-8 and in the assay on MCF7 was > 100 µM (inactive) each time. For the same molecule, the GI50 with OVCAR-5, with OVCAR-3, in the assay on ACHN, in the assay on SF-295, in the assay on MDA-N and with CAKI-1 was > 100 µM (inactive) throughout. In addition, the GI50 in the assay with HT-29, with UO-31, in the assay on M14, with SN12C, in the assay with SK-MEL-2 and in the assay on PC-3 was > 100 µM (inactive) each time.

(Values after ChEMBL document CHEMBL1201862, “PubChem BioAssay data set” (2004).)
